Experimental findings from patent US8383629B2, “Inhibitors of 11β-hydroxysteroid dehydrogenase type 1” (Vitae Pharmaceuticals, Inc., priority 2008, dated 2013) are described below.

A value given as a limit tells only on which side of the number the result lay.

For this assay, the target named is T1, human 11β-HSD1 (Homo sapiens, UniProt P28845).
T1 construct: expressed in transfected cells; host or cells: CHO cells (microsomes)
As to the kind of experiment: Inhibition of microsomal preparation of 11β-HSD1 (SPA, Biological Test Example 1). The format is biochemical. The settings on record: for inhibition at 0.111 µM: 111 nM; for IC50: microsomes from CHO cells overexpressing human 11β-HSD1, read-out: IC50 Range; for inhibition at 0.1 µM: 100 nM. An outline of the steps:
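Microsomes from CHO cells overexpressing human 11β-HSD1 reduced [3H]cortisone (160 nM in substrate solution, with 2 mM NADPH, HEPES pH 7.4) for 90 min at rt after a 10 min compound preincubation. Compounds were run as 8-point half-log DMSO dilutions from 0.1 mM. 18β-glycyrrhetinic acid stopped the reaction, and anti-cortisol antibody SPA beads read [3H]cortisol.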

T1 sequence (P28845 whole entry): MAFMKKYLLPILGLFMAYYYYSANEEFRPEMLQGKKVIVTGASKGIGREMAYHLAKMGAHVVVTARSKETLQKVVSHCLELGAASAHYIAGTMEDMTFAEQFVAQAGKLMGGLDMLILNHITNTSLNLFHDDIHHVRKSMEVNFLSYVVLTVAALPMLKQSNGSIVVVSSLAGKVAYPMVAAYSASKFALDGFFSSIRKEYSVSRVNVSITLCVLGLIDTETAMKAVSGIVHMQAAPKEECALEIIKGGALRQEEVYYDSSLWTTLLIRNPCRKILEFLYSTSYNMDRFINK

Usually inhibition stands for the drop in the measured response relative to a control, in per cent. In general, IC50 refers to the concentration needed to halve the response being measured. For the molecule `CS(=O)(=O)c1ccccc1CNC(=O)N1CCC2(CC1)CC(CC(=O)O)c1cccc(Br)c12` (centres unmarked) [EXAMPLE 97, 2-(7-bromo-1′-(2-(methylsulfonyl)benzylcarbamoyl)-2,3-dihydrospiro[indene-1,4′-piperidine]-3-yl)acetic acid], the inhibition at 0.111 µM is 5.6% and the IC50 was 100 to 1000 nM.
For `O=C1NC2(CCN(C(=O)CCc3ccccc3C(F)(F)F)CC2)c2c(Cl)cc(Cl)cc21` [EXAMPLE 72, 5,7-dichloro-1′-(3-(2-(trifluoromethyl)phenyl)propanoyl)spiro[isoindoline-1,4′-piperidin]-3-one], in that order: 82.4% and less than 100 nM.
As to `O=C(O)CC1CC2(CCN(C(=O)Cc3ccccc3C(F)(F)F)CC2)c2c(Cl)cccc21` (centres unmarked) [EXAMPLE 51, 2-(7-chloro-1′(2-(2-(trifluoromethyl)phenyl)acetyl)-2,3-dihydrospiro[indene-1,4′-piperidine]-3-yl)acetic acid], the inhibition at 0.1 µM was found to be 76.8% and the IC50 is less than 100 nM.
Turning to `O=C(O)CC1CC2(CCN(C(=O)/C=C/c3cc(F)ccc3C(F)(F)F)CC2)c2c(Cl)cccc21` (racemic) [EXAMPLE 5, (±)-(E)-2-(7-chloro-1′-(3-(5-fluoro-2-(trifluoromethyl)phenyl)acryloyl)-2,3-dihydrospiro[indene-1,4′-piperidine]-3-yl)acetic acid], the inhibition at 0.111 µM worked out at 83.3% and the half-maximal inhibitory concentration (IC50) is less than 100 nM.
The corresponding values for `O=C1NC2(CCN(C(=O)/C=C/c3ccccc3C(F)(F)F)CC2)c2c(Cl)cccc21` [EXAMPLE 27, (E)-7-chloro-1′-(3-(2-(trifluoromethyl)phenyl)acryloyl)spiro[isoindoline-1,4′-piperidin]-3-one] are 89.8% and less than 100 nM.
For `O=C(O)CC1CC2(CCN(C(=O)NCc3ccccc3C(F)(F)F)CC2)c2c(Br)cccc21` (centres unmarked) [EXAMPLE 94, 2-(7-bromo-1′-(2-(trifluoromethyl)benzylcarbamoyl)-2,3-dihydrospiro[indene-1,4′-piperidine]-3-yl)acetic acid], in that order: 75.7% and less than 100 nM.
Take `COC(=O)c1ccc2c(c1)C1(CCN(C(=O)CCc3ccccc3C(F)(F)F)CC1)C(=O)N2C` [EXAMPLE 76, 1-methyl-2-oxo-1′-(3-(2-(trifluoromethyl)phenyl)propanoyl)spiro[indoline-3,4′-piperidine]-5-carboxylate]: the inhibition at 0.111 µM was 60% and the IC50 is less than 100 nM.
For `O=C1CC2(CCN(C(=O)OCc3ccccc3C(F)(F)F)CC2)c2c(Br)cccc21` [EXAMPLE 105, 2-(trifluoromethyl)benzyl 7-bromo-3-oxo-2,3-dihydrospiro[indene-1,4′-piperidine]-1′-carboxylate], in that order: 82.3% and less than 100 nM.
For `O=C(O)CC1CC2(CCN(C(=O)NCc3ccccc3N3CCCC3)CC2)c2c(Br)cccc21` (centres unmarked) [EXAMPLE 96, 2-(7-bromo-1′-(2-(pyrrolidin-1-yl)benzylcarbamoyl)-2,3-dihydrospiro[indene-1,4′-piperidine]-3-yl)acetic acid], in that order: 48.9% and 100 to 1000 nM.
For `CC(C)Oc1ccccc1CNC(=O)N1CCC2(CC1)CC(CC(=O)O)c1cccc(Br)c12` (centres unmarked) [EXAMPLE 98, 2-(7-bromo-1′-(2-isopropoxybenzylcarbamoyl)-2,3-dihydrospiro[indene-1,4′-piperidine]-3-yl)acetic acid], in that order: 48.2% and less than 100 nM.
Regarding `O=C(O)CC1CC2(CCN(C(=O)Cc3ccc(F)cc3C(F)(F)F)CC2)c2c(Cl)cccc21` (centres unmarked) [EXAMPLE 53, 2-(7-chloro-1′(2-(4-fluoro-2-(trifluoromethyl)phenyl)acetyl)-2,3-dihydrospiro[indene-1,4′-piperidine]-3-yl)acetic acid], testing at 0.1 µM gave an inhibition of 67.2% and the IC50 was less than 100 nM.
For the molecule `CN(C)C(=O)c1ccc2c(c1)C1(CCN(C(=O)/C=C/c3ccccc3C(F)(F)F)CC1)C(=O)N2C` [EXAMPLE 34, (E)-N,N,1-trimethyl-2-oxo-1′-(3-(2-(trifluoromethyl)phenyl)acryloyl)spiro[indoline-3,4′-piperidine]-5-carboxamide], the inhibition at 0.111 µM is 38.2% and the IC50 fell in the range of 100 to 1000 nM.
In the case of `O=C(O)CC1CC2(CCN(C(=O)/C=C/c3ccccc3C(F)(F)F)CC2)c2c(Cl)cccc21` (racemic) [EXAMPLE 3, (±)-(E)-2-(7-chloro-1′-(3-(2-(trifluoromethyl)phenyl)acryloyl)-2,3-dihydrospiro[indene-1,4′-piperidine]-3-yl)acetic acid], 0.1 µM produced 96.3% inhibition and the IC50 is less than 100 nM.
For `Cc1ccc2c(c1)C(CC(=O)O)CC21CCN(C(=O)/C=C/c2ccccc2C(F)(F)F)CC1` (racemic) [EXAMPLE 12, (±)-(E)-2-(5-methyl-1′-(3-(2-(trifluoromethyl)phenyl)acryloyl)-2,3-dihydrospiro[indene-1,4′-piperidine]-3-yl)acetic acid], the inhibition at 0.111 µM came out at 90.3% and the IC50 is less than 100 nM.
Take `COc1ccc2c(c1)CCNC21CCN(C(=O)CCc2ccccc2C(F)(F)F)CC1` [EXAMPLE 62, 1-(6-methoxy-3,4-dihydro-2H-spiro[isoquinoline-1,4′-piperidine]-1′-yl)-3-(2-(trifluoromethyl)phenyl)propan-1-one]: 0.111 µM produced 87.2% inhibition and the IC50 is less than 100 nM.
The corresponding values for `CN1C(=O)C2(CCN(C(=O)/C=C/c3ccccc3C(F)(F)F)CC2)c2cc(C(N)=O)ccc21` [EXAMPLE 35, (E)-1-methyl-2-oxo-1′-(3-(2-(trifluoromethyl)phenyl)acryloyl)spiro[indoline-3,4′-piperidine]-5-carboxamide] are 41.4% and 100 to 1000 nM.
Take `O=C1CC2(CCN(C(=O)COc3ccccc3C(F)(F)F)CC2)c2c(Br)cccc21` [EXAMPLE 106, 7-bromo-1′-(2-(2-(trifluoromethyl)phenoxy)acetyl)spiro[indene-1,4′-piperidin]-3(2H)-one]: the IC50 is less than 100 nM.
Take `O=C(O)CC1CC2(CCN(C(=O)CCc3ccccc3C(F)(F)F)CC2)c2c(Br)cccc21` (single isomer, unassigned) [EXAMPLE 70.1]: the inhibition at 0.111 µM was found to be 97.6% and the IC50 is less than 100 nM.
The corresponding values for `CC(=O)N1Cc2ccccc2C2(CCN(C(=O)/C=C/c3ccccc3C(F)(F)F)CC2)C1` [EXAMPLE 23, (E)-1-(2-acetyl-2,3-dihydro-1H-spiro[isoquinoline-4,4′-piperidine]-1′-yl)-3-(2-(trifluoromethyl)phenyl)prop-2-en-1-one] are 94.9% and less than 100 nM.
The corresponding values for `CN(Cc1ccccc1C(F)(F)F)C(=O)N1CCC2(CC1)CC(CC(=O)O)c1cccc(Br)c12` (centres unmarked) [EXAMPLE 102, 2-(7-bromo-1′-(methyl(2-(trifluoromethyl)benzyl)carbamoyl)-2,3-dihydrospiro[indene-1,4′-piperidine]-3-yl)acetic acid] are 64.4% and less than 100 nM.
Turning to `O=C(/C=C/c1ccccc1C(F)(F)F)N1CCC2(CC1)CC(O)c1cccc(Br)c12` (racemic) [EXAMPLE 16, (±)-(E)-1-(7-bromo-3-hydroxy-2,3-dihydrospiro[indene-1,4′-piperidine]-1′-yl)-3-(2-(trifluoromethyl)phenyl)prop-2-en-1-one], 0.1 µM produced 95.3% inhibition, at 0.111 µM the inhibition was 98.6% and the IC50 was less than 100 nM.
Regarding `CCOc1ccccc1CNC(=O)N1CCC2(CC1)CC(CC(=O)O)c1cccc(Br)c12` (centres unmarked) [EXAMPLE 84, 2-(7-bromo-1′-(2-ethoxybenzylcarbamoyl)-2,3-dihydrospiro[indene-1,4′-piperidine]-3-yl)acetic acid], the inhibition at 0.111 µM turned out to be 42.6% and the IC50 was in the range of 100 to 1000 nM.
